Experimental data from US11938168B2, “Ophthalmic compositions and methods of use therefor” (Auckland Uniservices Limited, priority 2015, dated 2024).

Columns and labels:
keratocytes = assay: TGFβ3 and dexamethasone tested separately, collagen type II production; type: cell-based; conditions: agents tested separately
[1] = test system: mink lung epithelial (Mv1Lu) cells; conditions: exemplary activity; cited from earlier work

Compound	collagen type II production in keratocytes (keratocytes)	ED50, inhibition of Mv1Lu cell proliferation [1] [ng/mL]
C[C@@H]1C[C@H]2[C@@H]3CCC4=CC(=O)C=C[C@]4(C)[C@@]3(F)[C@@H](O)C[C@]2(C)[C@@]1(O)C(=O)CO [dexamethasone, reference compound]	no collagen type II production	–
TGFβ3: TGFβ3 polypeptide, SEQ ID NO:1; recombinant human TGFβ3 from commercial sources (Abcam, ab52313)	no collagen type II production	≤ 50
